The nature of assay [1]: Binding affinity to human antithrombin in HEPES buffer containing 0.1 M sodium chloride assessed as increase of serpin intrinsic fluorescence by fluorospectrophotometric analysis.
Assay [2] can be described thus: Binding affinity to human antithrombin in HEPES buffer containing 0.25 M sodium chloride assessed as increase of serpin intrinsic fluorescence by fluorospectrophotometric analysis.
The target in assay [3] is Coagulation factor X (Homo sapiens) (UniProt P00742). As to the kind of experiment: Inhibition of factor 10a in aqueous buffer solutions assessed as specific activity of enzyme.
Sequence of Coagulation factor X (Homo sapiens) (P00742 41-179 limits assumed): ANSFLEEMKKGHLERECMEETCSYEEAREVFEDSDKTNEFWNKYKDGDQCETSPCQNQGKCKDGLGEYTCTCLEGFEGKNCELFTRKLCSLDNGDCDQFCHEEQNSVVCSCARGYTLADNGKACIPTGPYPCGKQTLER
Sequence of Coagulation factor X (Homo sapiens) (P00742 235-488 limits assumed): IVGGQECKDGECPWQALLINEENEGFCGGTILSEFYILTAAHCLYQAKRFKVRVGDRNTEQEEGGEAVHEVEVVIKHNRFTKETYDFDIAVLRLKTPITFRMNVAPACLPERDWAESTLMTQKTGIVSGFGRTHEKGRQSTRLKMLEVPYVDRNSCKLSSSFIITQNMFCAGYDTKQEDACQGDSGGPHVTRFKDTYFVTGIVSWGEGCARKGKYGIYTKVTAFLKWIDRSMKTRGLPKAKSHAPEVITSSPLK
For assay [4] the target is unchanged. As to the kind of experiment: Inhibition of factor 10a in human plasma assessed as specific activity of enzyme. Format: cell-free.
Assay [5] can be described thus: Binding affinity to human antithrombin in HEPES buffer containing 0.50 M sodium chloride assessed as increase of serpin intrinsic fluorescence by fluorospectrophotometric analysis.

Bounds are passed on as bounds.

A word on the Kd: it is the equilibrium constant for the complex coming apart. Turning to `CC(=O)N[C@H]1[C@@H](O[C@H]2[C@H](O)[C@@H](O)[C@H](O[C@H]3[C@H](OS(=O)(=O)O)[C@@H](NS(=O)(=O)O)[C@@H](O[C@H]4[C@H](O)[C@@H](OS(=O)(=O)O)[C@H](O[C@H]5[C@H](O)[C@H](NS(=O)(=O)O)[C@H]6OC[C@H]5O6)O[C@H]4C(=O)O)O[C@@H]3COS(=O)(=O)O)O[C@@H]2C(=O)O)O[C@H](COS(=O)(=O)O)[C@@H](O[C@@H]2O[C@@H](C(=O)O)[C@@H](O[C@H]3O[C@H](COS(=O)(=O)O)[C@@H](O[C@@H]4OC(C(=O)O)=C[C@H](O)[C@H]4OS(=O)(=O)O)[C@H](O)[C@H]3NS(=O)(=O)O)[C@H](O)[C@H]2O)[C@@H]1O`, the Kd is 900 nM in assay [1] and more than 10000 nM in assay [2]. For the same molecule, the Activity in assay [3] came to 51.4 U/mg; in assay [4] it was 49.6 U/mg.

Regarding `CC(=O)N[C@H]1[C@@H](O[C@H]2[C@H](O)[C@@H](O)[C@H](O[C@H]3[C@H](OS(=O)(=O)O)[C@@H](NS(=O)(=O)O)[C@@H](O[C@H]4[C@H](O)[C@@H](OS(=O)(=O)O)[C@H](O[C@H]5[C@H](O)[C@@H](NS(=O)(=O)O)[C@@H](O)O[C@@H]5COS(=O)(=O)O)O[C@H]4C(=O)O)O[C@@H]3COS(=O)(=O)O)O[C@@H]2C(=O)O)O[C@H](COS(=O)(=O)O)[C@@H](O[C@@H]2O[C@@H](C(=O)O)[C@@H](O[C@H]3O[C@H](COS(=O)(=O)O)[C@@H](O[C@@H]4OC(C(=O)O)=C[C@H](O)[C@H]4OS(=O)(=O)O)[C@H](O)[C@H]3NS(=O)(=O)O)[C@H](O)[C@H]2O)[C@@H]1O`, the figures for the Kd in assay [1] and in assay [5] were 120 nM and 2740 nM, respectively.

As for `CC(=O)N[C@H]1[C@@H](O[C@H]2[C@H](O)[C@@H](O)[C@H](O[C@H]3[C@H](OS(=O)(=O)O)[C@@H](NS(=O)(=O)O)[C@@H](O[C@H]4[C@H](O)[C@@H](OS(=O)(=O)O)[C@H](O[C@H]5[C@H](O)[C@@H](NS(=O)(=O)O)[C@H]6OC[C@H]5O6)O[C@H]4C(=O)O)O[C@@H]3COS(=O)(=O)O)O[C@@H]2C(=O)O)O[C@H](COS(=O)(=O)O)[C@@H](O[C@@H]2O[C@@H](C(=O)O)[C@@H](O[C@H]3O[C@H](COS(=O)(=O)O)[C@@H](O[C@@H]4OC(C(=O)O)=C[C@H](O)[C@H]4OS(=O)(=O)O)[C@H](O)[C@H]3NS(=O)(=O)O)[C@H](O)[C@H]2O)[C@@H]1O`, the equilibrium dissociation constant (Kd) in assay [1] is 1230 nM; in assay [2] it was more than 10000 nM. Besides, the figures for the Activity in assay [3] and in assay [4] were 39.6 U/mg and 39.3 U/mg, respectively.

Values taken from ChEMBL document CHEMBL1275397, “Effects on molecular conformation and anticoagulant activities of 1,6-anhydrosugars at the reducing terminal of antithrombin-binding octasaccharides isolated from low-molecular-weight heparin enoxaparin” (J Med Chem, 2010).
